We go through 32 molecules from patent publication US20100137313A1 (ASTRAZENECA AB, priority 2008, published 2010).

Molecules are shown by their SMILES.

Sequence of S. pneumoniae Topoisomerase IV ATPase (ParE) (Q59961 whole entry): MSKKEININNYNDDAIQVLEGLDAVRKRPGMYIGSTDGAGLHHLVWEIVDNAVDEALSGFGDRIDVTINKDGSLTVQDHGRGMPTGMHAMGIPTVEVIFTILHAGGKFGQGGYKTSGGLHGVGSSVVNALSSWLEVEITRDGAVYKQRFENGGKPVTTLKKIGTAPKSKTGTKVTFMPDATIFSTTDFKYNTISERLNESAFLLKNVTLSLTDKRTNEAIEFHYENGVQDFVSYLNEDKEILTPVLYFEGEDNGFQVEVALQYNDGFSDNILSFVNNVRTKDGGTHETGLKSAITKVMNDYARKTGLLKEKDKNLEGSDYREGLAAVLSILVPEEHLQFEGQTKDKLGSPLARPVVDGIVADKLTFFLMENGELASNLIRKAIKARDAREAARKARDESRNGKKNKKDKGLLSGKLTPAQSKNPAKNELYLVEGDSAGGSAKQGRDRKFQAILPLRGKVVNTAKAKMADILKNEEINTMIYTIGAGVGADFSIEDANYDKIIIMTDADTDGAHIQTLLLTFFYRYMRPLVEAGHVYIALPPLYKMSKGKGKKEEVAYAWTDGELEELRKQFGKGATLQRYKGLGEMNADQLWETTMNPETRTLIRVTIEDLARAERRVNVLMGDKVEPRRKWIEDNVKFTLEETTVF

This experiment concerns the target S. pneumoniae Topoisomerase IV ATPase (ParE) (Streptococcus pneumoniae serotype 4, UniProt Q59961). The experiment is described as follows: S. pneumoniae Topoisomerase IV ATPase inhibition. In kind it is biochemical. The conditions noted are these: values marked * are an average of two or more data points, read-out: % Inh (13 μM) of S. pneumoniae Topoisomerase IV ATPase. The protocol:
S. pneumoniae Topoisomerase IV ATPase Inhibition Activity: Compounds may be tested for inhibition of S. pneumoniae ParE ATPase activity using an ammonium molybdate/malachite green-based phosphate detection assay (Lanzetta, P. A., L. J. Alvarez, P. S. Reinach, and O. A. Candia, 1979, 100: 95-97). Assays are performed in multiwell plates in 30 μl reactions containing: 20 mM Tris buffer pH 8.0, 50 mM ammonium acetate, 8.0 mM magnesium chloride, 0.5 mM ethylenediaminetetraacetic acid, 5% glycerol, 5 mM 1,4-Dithio-DL-threitol, 0.005% Brij-35, 5 μg/ml sheared salmon sperm DNA, 1.25 nM S. pneumoniae ParE, 160 μM ATP, and test compound in dimethylsulfoxide. Reactions are quenched with 30 μl of ammonium molybdate/malachite green detection reagent containing 1.2 mM malachite green hydrochloride, 8.5 mM ammonium molybdate tetrahydrate, and 1 M hydrochloric acid. Plates are read in an absorbance plate reader at 650 nm and percent inhibition values are calculated using dimethylsulfoxide (2%)-containing reactions as 0% inhibition and EDTA-containing ([…]) reactions as 100% inhibition controls. An IC50 measurement of compound potency for each compound can be determined from reactions performed in the presence of 10 different compound concentrations.
Many of the compounds of the invention were tested in an assay substantially similar to the assays described above for measuring the inhibition of E.coli GyrB ATPase, E. coli Topoisomerase IV ATPase, S. aureus GyrB ATPase, and S. pneumoniae Topoisomerase IV ATPase, and had IC50 values of <200 μM in one or more assays.
For `CN(C)CCCNc1nc(Nc2ccc(F)c(Cl)c2)ncc1-c1ccc(CCC(=O)O)cc1` [Example 27, 3-[4-(2-[(3-chloro-4-fluorophenyl)amino]-4-{[3-(dimethylamino)propyl]-amino}pyrimidin-5-yl)phenyl]propanoic acid], the inhibition at 13 µM was 89.2%.
For `COc1ccccc1-c1cnc(Nc2ccc(F)c(Cl)c2)nc1NCCCN(C)C` [Example 28, N^2-(3-chloro-4-fluorophenyl)-N^4-[3-(dimethylamino)propyl]-5-(2-methoxyphenyl)-pyrimidin-2,4-diamine], the inhibition at 13 µM was 62.6%.
Under `CN(C)CCCNc1nc(Nc2ccc(F)c(Cl)c2)ncc1-c1cccc(/C=C/C(=O)O)c1` [Example 29, (2E)-3-[3-(2-[(3-chloro-4-fluorophenyl)amino]-4-{[3-(dimethylamino)propyl]-amino}pyrimidin-5-yl)phenyl]prop-2-enoic acid] stands 99.7%; under `CN(C)CCCNc1nc(Nc2ccc(F)c(Cl)c2)ncc1-c1cccc(C(=O)O)c1` [Example 31, 3-(2-[(3-chloro-4-fluorophenyl)amino]-4-{[3-(dimethylamino)propyl]-amino}pyrimidin-5-yl)benzoic acid], 86%; under `CN(C)CCCNc1nc(Nc2ccc(F)c(Cl)c2)ncc1-c1cncnc1` [Example 32, N^2-(3-chloro-4-fluorophenyl)-N^4-[3-(dimethylamino)propyl]-5,5′-bipyrimidine-2,4-diamine], 91.1%.
On to `CCCNc1nc(Nc2ccc(F)c(Cl)c2)ncc1-c1cncnc1` [Example 33, N^2-(3-chloro-4-fluorophenyl)-N^4-propyl-5-pyrimidin-5-ylpyrimidine-2,4-diamine], for which the inhibition at 13 µM was 81%.
Under `O=C1CCCN1CCCNc1nc(Nc2ccc(F)c(Cl)c2)ncc1-c1cncnc1` [Example 34, 1-[3-[[2-[(3-chloro-4-fluorophenyl)amino]-5-pyrimidin-5-ylpyrimidin-4-yl]amino]propyl] pyrrolidin-2-one] stands 84.3%; under `CC(=O)N1CCC(Nc2nc(Nc3ccc(F)c(Cl)c3)ncc2-c2cncnc2)CC1` [Example 35, 1-[4-[[2-[(3-chloro-4-fluorophenyl)amino]-5-pyrimidin-5-ylpyrimidin-4-yl]amino]piperidin-1-yl]ethanone], 58.3%; under `CC(=O)NCCNc1nc(Nc2ccc(F)c(Cl)c2)ncc1-c1cncnc1` [Example 37, N-[2-[[2-[(3-chloro-4-fluorophenyl)amino]-5-pyrimidin-5-ylpyrimidin-4-yl]amino]ethyl] acetamide], 76.3%.
Under `Fc1ccc(Nc2ncc(-c3cncnc3)c(NCc3ccccn3)n2)cc1Cl` [Example 38, N^2-(3-chloro-4-fluorophenyl)-N^4-(pyridin-2-ylmethyl)-5-pyrimidin-5-ylpyrimidine-2,4-diamine] stands 62.3%.
As for `Fc1ccc(Nc2ncc(-c3cncnc3)c(NCc3cccnc3)n2)cc1Cl` [Example 39, N^2-(3-chloro-4-fluorophenyl)-N^4-(pyridin-3-ylmethyl)-5-pyrimidin-5-ylpyrimidine-2,4-diamine], the figure is 63%.
With `Fc1ccc(Nc2ncc(-c3cncnc3)c(NCc3ccncc3)n2)cc1Cl` [Example 40, N^2-(3-chloro-4-fluorophenyl)-N^4-(pyridin-4-ylmethyl)-5-pyrimidin-5-ylpyrimidine-2,4-diamine], the inhibition at 13 µM is 72.4%.
Under `CC(C)(C)OC(=O)NCCNc1nc(Nc2ccc(F)c(Cl)c2)ncc1-c1cncnc1` [Example 41, tert-butyl N-[2-[[2-[(3-chloro-4-fluorophenyl)amino]-5-pyrimidin-5-ylpyrimidin-4-yl]amino]ethyl] carbamate] stands 72.7%; under `NC(=O)CCNc1nc(Nc2ccc(F)c(Cl)c2)ncc1-c1cncnc1` [Example 42, 3-[[2-[(3-chloro-4-fluorophenyl)amino]-5-pyrimidin-5-ylpyrimidin-4-yl]amino]propanamide], 77.5%.
Take `Fc1ccc(Nc2ncc(-c3cncnc3)c(NCCN3CCOCC3)n2)cc1Cl` [Example 43, N^2-(3-chloro-4-fluorophenyl)-N^4-(2-morpholin-4-ylethyl)-5-pyrimidin-5-ylpyrimidine-2,4-diamine]: the inhibition at 13 µM came out at 74.3%.
As for `Fc1ccc(Nc2ncc(-c3cncnc3)c(NCCc3ccccn3)n2)cc1Cl` [Example 44, N^2-(3-chloro-4-fluorophenyl)-N^4-(2-pyridin-2-ylethyl)-5-pyrimidin-5-ylpyrimidine-2,4-diamine], the figure is 78.4%.
As for `Fc1ccc(Nc2ncc(-c3cncnc3)c(NCCc3cccnc3)n2)cc1Cl` [Example 45, N^2-(3-chloro-4-fluorophenyl)-N^4-(2-pyridin-3-ylethyl)-5-pyrimidin-5-ylpyrimidine-2,4-diamine], the figure is 81.9%; as for `O=S1(=O)CCN(CCNc2nc(Nc3ccc(F)c(Cl)c3)ncc2-c2cncnc2)CC1` [Example 47, N^2-(3-chloro-4-fluorophenyl)-N^4-[2-(1,1-dioxo-1,4-thiazinan-4-yl)ethyl]-5-pyrimidin-5-ylpyrimidine-2,4-diamine], 74.8%.
Turning to `O=S1(=O)CCN(CCCNc2nc(Nc3ccc(F)c(Cl)c3)ncc2-c2cncnc2)CC1` [Example 48, N^2-(3-chloro-4-fluorophenyl)-N^4-[3-(1,1-dioxo-1,4-thiazinan-4-yl)propyl]-5-pyrimidin-5-ylpyrimidine-2,4-diamine], the inhibition at 13 µM came to 79.8%.
As for `Fc1ccc(Nc2ncc(-c3cncnc3)c(NCCCN3CCOCC3)n2)cc1Cl` [Example 49, N^2-(3-chloro-4-fluorophenyl)-N^4-(3-morpholin-4-ylpropyl)-5-pyrimidin-5-ylpyrimidine-2,4-diamine], the figure is 85.6%; as for `COCCNc1nc(Nc2ccc(F)c(Cl)c2)ncc1-c1cncnc1` [Example 50, N^2-(3-chloro-4-fluorophenyl)-N^4-(2-methoxyethyl)-5-pyrimidin-5-ylpyrimidine-2,4-diamine], 77.8%.
As for `Fc1ccc(Nc2ncc(-c3cncnc3)c(NCC3CCCO3)n2)cc1Cl` (centres unmarked) [Example 51, N-(3-chloro-4-fluorophenyl)-N′-(oxolan-2-ylmethyl)-5-pyrimidin-5-ylpyrimidine-2,4-diamine], the figure is 88.8%; as for `CC(C)OCCNc1nc(Nc2ccc(F)c(Cl)c2)ncc1-c1cncnc1` [Example 52, N^2-(3-chloro-4-fluorophenyl)-N4-(2-propan-2-yloxyethyl)-5-pyrimidin-5-ylpyrimidine-2,4-diamine], 69.5%; as for `Fc1ccc(Nc2ncc(-c3cncnc3)c(NCc3ccco3)n2)cc1Cl` [Example 53, N^2-(3-chloro-4-fluorophenyl)-N^4-(furan-2-ylmethyl)-5-pyrimidin-5-ylpyrimidine-2,4-diamine], 70.5%.
Under `CCOC(=O)CNc1nc(Nc2ccc(F)c(Cl)c2)ncc1-c1cncnc1` [Example 54, ethyl 2-[[2-[(3-chloro-4-fluorophenyl)amino]-5-pyrimidin-5-ylpyrimidin-4-yl]amino]acetate] stands 77.5%; under `Fc1ccc(Nc2ncc(-c3cncnc3)c(NCCOc3ccccc3)n2)cc1Cl` [Example 55, N^2-(3-chloro-4-fluorophenyl)-N^4-(2-phenoxyethyl)-5-pyrimidin-5-ylpyrimidine-2,4-diamine], 44.4%; under `COC(=O)[C@@H](C)Nc1nc(Nc2ccc(F)c(Cl)c2)ncc1-c1cncnc1` [Example 56, methyl (2R)-2-[[2-[(3-chloro-4-fluorophenyl)amino]-5-pyrimidin-5-ylpyrimidin-4-yl]amino]propanoate], 46.3%.
On to `Cc1cnc(CNc2nc(Nc3ccc(F)c(Cl)c3)ncc2-c2cncnc2)cn1` [Example 58, N^2-(3-chloro-4-fluorophenyl)-N^4-[(5-methylpyrazin-2-yl)methyl]-5-pyrimidin-5-ylpyrimidine-2,4-diamine], for which the inhibition at 13 µM stood at 58%.
Under `CC(C)Nc1nc(Nc2ccc(F)c(Cl)c2)ncc1-c1cncnc1` [Example 59, N^2-(3-chloro-4-fluorophenyl)-N^4-propan-2-yl-5-pyrimidin-5-ylpyrimidine-2,4-diamine] stands 51.8%.
As for `OC1CCN(c2nc(Nc3ccc(F)c(Cl)c3)ncc2-c2cncnc2)CC1` [Example 60, 1-[2-[(3-chloro-4-fluorophenyl)amino]-5-pyrimidin-5-ylpyrimidin-4-yl]piperidin-4-ol], the figure is 72.3%.
Regarding `OCC1CCCN(c2nc(Nc3ccc(F)c(Cl)c3)ncc2-c2cncnc2)C1` (centres unmarked) [Example 61, [1-[2-[(3-chloro-4-fluorophenyl)amino]-5-pyrimidin-5-ylpyrimidin-4-yl]piperidin-3-yl]methanol], the inhibition at 13 µM was determined as 74.8%.
As for `Fc1ccc(Nc2ncc(-c3cncnc3)c(N3CCC(N4CCOCC4)CC3)n2)cc1Cl` [Example 62, N-(3-chloro-4-fluorophenyl)-4-(4-morpholin-4-ylpiperidin-1-yl)-5-pyrimidin-5-ylpyrimidin-2-amine], the figure is 71%.
